Source: article PMC10952895, “Assessment of the potential of novel and classical opioids to induce respiratory depression in mice” (British Journal of Pharmacology, 2023)

Test system: T1, μ-receptor (μ-receptor-RLuc8)
T1 construct: gene Oprm1; construct from Gillis, Gondin et al. 2020
Experiment: BRET, Nb33-Venus recruitment to μ-receptor-RLuc8 in HEK293 cells
Assay type: cell-based
Conditions: agonist; 10 min after addition, normalised to DAMGO

| SMILES | pEC50 |
| --- | --- |
| COc1ccc2c3c1O[C@H]1C(=O)CC[C@@]4(O)[C@@H](C2)N(C)CC[C@]314 [oxycodone] | 5.8 ± 0.05 |
| COc1ccsc1CNCC[C@@]1(c2ccccn2)CCOC2(CCCC2)C1 [oliceridine] | 6.8 ± 0.1 |
| CN1c2ccccc2C(NCCCCCCC(=O)O)c2ccc(Cl)cc2S1(=O)=O (stereo not drawn) [tianeptine] | 5.8 ± 0.07 |
